Consider three compounds from ChEMBL document CHEMBL1132917, “Discovery of a potent, non-triketone type inhibitor of 4-hydroxyphenylpyruvate dioxygenase” (Bioorg Med Chem Lett, 2000).

The target in this experiment is 4-hydroxyphenylpyruvate dioxygenase (Sus scrofa, UniProt Q02110). Description: In vitro inhibitory activity against HPPD(4-hydroxyphenylpyruvate Dioxygenase) from pig liver using enol borate assay method.
Sequence of 4-hydroxyphenylpyruvate dioxygenase (Q02110 whole entry): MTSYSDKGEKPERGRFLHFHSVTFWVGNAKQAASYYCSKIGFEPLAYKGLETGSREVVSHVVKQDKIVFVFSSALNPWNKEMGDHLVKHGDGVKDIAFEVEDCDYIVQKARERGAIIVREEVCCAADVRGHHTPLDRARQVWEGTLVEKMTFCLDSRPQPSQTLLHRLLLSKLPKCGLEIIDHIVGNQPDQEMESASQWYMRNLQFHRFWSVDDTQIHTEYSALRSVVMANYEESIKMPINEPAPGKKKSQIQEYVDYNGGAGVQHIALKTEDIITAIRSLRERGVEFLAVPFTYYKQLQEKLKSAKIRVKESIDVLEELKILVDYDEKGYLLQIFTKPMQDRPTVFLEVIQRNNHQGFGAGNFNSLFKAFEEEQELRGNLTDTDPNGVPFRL
One may read the IC50 as the concentration that gives 50% inhibition. Compound `O=C1C=C(OC(=O)C2CC2)CCC1` displayed a concentration for half-maximal inhibition (IC50) of 0.03 µM.

For `CC(=O)OC1=CC(=O)CCC1`, it took 3.62 µM to reach half-maximal inhibition (IC50).

`CC(C)C(=O)OC1=CC(=O)CCC1` came in with an IC50 of 4.16 µM. This IC50 and that of the compound before are within 1.5-fold of each other.
